Measurements published in patent publication US20120122860A1, “SOLID FORMS OF SULFONAMIDES AND AMINO ACIDS” (Plexxikon, Inc., priority 2009, published 2012).

What was measured:
[1] = biological target: B-Raf (Homo sapiens, UniProt P15056); experiment: Kinase activity assay, B-Raf; format: biochemical; details: read-out: activity toward kinase B-Raf, IC50
[2] = biological target: B-Raf V600E (Homo sapiens, UniProt P15056, V600E); experiment: Kinase activity assay, B-Raf V600E; format: biochemical; details: read-out: activity toward kinase B-Raf V600E, IC50
[3] = biological target: Src (Homo sapiens, UniProt P12931); experiment: Kinase activity assay, Src
[4] = biological target: T1, A-Raf (Homo sapiens, UniProt P10398); experiment: Kinase activity assay, A-Raf
T1 sequence (P10398 1-606): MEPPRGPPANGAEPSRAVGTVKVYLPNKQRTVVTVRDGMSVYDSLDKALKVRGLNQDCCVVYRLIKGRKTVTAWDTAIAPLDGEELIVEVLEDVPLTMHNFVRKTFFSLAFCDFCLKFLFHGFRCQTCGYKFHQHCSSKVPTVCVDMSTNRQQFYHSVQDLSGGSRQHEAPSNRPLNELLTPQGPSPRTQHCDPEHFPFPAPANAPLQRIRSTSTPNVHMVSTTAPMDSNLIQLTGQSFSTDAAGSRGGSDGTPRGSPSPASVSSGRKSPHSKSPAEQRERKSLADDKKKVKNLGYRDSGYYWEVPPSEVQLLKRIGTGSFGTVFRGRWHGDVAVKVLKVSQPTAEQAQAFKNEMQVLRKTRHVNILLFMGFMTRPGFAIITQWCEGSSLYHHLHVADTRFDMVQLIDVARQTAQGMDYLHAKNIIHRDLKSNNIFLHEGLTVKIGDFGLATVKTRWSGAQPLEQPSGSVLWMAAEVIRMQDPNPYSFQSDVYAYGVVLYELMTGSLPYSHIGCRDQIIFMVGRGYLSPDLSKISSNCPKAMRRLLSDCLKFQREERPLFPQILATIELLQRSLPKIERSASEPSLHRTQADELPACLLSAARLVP

[5] = biological target: C-Raf (Homo sapiens, UniProt P04049); experiment: Kinase activity assay, C-Raf
[6] = biological target: MAP4K4 (Homo sapiens, UniProt O95819); experiment: Kinase activity assay, MAP4K4
[7] = biological target: Kdr (Homo sapiens, UniProt P35968); experiment: Kinase activity assay, Kdr

Measured: IC50

Chain of B-Raf V600E (P15056 whole entry V600E): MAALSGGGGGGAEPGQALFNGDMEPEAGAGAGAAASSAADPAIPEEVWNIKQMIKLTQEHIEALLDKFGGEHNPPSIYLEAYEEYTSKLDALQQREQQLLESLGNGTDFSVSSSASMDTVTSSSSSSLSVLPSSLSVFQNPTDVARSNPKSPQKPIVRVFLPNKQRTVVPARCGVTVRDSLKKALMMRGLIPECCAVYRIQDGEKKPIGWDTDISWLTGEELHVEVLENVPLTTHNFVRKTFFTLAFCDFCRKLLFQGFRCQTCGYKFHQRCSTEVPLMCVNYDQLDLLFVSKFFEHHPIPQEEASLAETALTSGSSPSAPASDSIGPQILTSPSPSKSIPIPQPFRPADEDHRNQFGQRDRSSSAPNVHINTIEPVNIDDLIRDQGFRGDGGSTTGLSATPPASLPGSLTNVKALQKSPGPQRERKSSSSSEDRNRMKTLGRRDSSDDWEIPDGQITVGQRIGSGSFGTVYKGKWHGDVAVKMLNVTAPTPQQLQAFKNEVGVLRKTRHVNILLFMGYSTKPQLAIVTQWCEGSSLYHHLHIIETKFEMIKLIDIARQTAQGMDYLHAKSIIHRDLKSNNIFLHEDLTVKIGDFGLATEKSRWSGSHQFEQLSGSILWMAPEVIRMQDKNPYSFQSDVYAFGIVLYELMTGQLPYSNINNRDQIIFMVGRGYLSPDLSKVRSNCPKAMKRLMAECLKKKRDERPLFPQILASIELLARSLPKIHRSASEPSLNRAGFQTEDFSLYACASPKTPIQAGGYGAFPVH
Chain of B-Raf (P15056 whole entry): as the sequence (P15056 whole entry V600E) above, with E600V counted along it
Chain of MAP4K4 (O95819 whole entry): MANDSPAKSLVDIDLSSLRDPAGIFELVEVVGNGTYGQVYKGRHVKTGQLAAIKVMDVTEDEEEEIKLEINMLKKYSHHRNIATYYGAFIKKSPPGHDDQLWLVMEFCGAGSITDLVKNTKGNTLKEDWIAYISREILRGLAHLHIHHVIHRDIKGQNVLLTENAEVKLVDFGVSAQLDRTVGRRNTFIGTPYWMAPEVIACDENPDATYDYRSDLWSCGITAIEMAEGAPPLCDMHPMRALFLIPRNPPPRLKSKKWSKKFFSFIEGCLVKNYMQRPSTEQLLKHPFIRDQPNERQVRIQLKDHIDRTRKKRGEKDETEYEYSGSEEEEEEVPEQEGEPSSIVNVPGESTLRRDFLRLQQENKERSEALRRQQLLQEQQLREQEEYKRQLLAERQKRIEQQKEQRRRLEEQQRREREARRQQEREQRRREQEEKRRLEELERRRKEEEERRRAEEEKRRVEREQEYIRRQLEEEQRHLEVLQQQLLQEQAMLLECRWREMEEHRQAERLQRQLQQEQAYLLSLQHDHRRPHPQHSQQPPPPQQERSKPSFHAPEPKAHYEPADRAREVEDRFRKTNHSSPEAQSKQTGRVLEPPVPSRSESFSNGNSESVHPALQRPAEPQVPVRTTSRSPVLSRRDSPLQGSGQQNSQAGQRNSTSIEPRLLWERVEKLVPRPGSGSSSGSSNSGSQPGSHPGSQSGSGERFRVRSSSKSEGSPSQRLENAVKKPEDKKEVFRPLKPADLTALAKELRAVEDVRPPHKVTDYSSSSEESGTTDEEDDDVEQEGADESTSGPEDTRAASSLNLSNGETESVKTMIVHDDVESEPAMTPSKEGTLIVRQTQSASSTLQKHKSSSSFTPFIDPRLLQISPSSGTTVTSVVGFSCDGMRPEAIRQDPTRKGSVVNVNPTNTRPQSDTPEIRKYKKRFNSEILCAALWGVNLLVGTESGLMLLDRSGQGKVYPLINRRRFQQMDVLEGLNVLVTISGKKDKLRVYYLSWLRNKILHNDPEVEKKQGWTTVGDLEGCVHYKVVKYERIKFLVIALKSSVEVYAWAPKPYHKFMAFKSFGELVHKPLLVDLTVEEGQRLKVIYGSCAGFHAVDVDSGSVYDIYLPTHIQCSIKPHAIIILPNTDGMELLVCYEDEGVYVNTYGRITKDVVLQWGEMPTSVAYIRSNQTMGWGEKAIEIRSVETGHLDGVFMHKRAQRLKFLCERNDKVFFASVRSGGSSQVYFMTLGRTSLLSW
Chain of Kdr (P35968 20-1356): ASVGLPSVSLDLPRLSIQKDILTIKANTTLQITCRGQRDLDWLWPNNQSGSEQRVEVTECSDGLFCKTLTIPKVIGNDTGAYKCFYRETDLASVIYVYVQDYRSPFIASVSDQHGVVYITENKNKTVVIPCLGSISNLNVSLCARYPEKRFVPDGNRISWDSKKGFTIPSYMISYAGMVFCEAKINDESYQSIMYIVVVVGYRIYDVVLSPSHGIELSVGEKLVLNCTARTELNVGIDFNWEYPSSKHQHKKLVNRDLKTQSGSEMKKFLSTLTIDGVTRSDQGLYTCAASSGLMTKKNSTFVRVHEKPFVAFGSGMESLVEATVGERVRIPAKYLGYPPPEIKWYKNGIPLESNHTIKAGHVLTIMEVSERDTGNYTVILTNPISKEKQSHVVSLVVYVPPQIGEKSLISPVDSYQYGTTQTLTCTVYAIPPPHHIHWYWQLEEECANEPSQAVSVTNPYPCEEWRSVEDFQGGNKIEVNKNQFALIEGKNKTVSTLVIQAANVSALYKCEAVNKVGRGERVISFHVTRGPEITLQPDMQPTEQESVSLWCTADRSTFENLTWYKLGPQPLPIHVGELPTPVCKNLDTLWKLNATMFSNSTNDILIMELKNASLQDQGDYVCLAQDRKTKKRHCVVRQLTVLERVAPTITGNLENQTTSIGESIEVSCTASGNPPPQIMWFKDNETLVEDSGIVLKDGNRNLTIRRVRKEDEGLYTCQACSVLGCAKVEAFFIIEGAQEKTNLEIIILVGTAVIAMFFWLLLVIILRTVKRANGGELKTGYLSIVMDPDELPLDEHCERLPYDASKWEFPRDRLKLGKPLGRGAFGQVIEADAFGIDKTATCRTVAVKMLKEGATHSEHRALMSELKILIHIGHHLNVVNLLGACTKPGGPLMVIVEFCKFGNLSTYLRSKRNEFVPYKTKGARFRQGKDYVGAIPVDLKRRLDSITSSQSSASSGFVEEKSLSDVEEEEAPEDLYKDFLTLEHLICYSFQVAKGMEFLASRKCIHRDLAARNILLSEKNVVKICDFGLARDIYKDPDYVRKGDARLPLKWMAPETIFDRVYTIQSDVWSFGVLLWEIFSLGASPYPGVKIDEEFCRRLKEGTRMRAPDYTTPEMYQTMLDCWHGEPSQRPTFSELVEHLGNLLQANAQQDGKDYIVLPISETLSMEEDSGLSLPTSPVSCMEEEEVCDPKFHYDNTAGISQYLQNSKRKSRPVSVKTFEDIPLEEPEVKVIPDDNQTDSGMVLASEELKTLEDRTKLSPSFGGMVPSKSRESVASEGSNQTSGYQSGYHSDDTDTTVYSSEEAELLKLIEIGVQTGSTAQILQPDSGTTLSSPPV
Chain of Src (P12931 whole entry): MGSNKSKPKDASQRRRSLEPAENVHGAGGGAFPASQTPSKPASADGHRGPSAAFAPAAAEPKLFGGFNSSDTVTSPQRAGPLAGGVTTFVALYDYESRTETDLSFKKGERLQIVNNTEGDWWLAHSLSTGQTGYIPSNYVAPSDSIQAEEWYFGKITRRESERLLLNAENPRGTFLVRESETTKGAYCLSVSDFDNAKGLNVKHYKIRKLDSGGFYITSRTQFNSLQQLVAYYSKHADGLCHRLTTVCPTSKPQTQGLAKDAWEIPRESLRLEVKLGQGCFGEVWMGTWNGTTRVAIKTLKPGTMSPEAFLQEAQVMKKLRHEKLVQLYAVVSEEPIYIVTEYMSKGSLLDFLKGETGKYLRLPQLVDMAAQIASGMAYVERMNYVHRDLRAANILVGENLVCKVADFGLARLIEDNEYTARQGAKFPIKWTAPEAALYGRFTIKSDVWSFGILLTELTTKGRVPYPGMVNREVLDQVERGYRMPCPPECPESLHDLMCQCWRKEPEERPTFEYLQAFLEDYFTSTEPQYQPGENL
Chain of C-Raf (P04049 whole entry): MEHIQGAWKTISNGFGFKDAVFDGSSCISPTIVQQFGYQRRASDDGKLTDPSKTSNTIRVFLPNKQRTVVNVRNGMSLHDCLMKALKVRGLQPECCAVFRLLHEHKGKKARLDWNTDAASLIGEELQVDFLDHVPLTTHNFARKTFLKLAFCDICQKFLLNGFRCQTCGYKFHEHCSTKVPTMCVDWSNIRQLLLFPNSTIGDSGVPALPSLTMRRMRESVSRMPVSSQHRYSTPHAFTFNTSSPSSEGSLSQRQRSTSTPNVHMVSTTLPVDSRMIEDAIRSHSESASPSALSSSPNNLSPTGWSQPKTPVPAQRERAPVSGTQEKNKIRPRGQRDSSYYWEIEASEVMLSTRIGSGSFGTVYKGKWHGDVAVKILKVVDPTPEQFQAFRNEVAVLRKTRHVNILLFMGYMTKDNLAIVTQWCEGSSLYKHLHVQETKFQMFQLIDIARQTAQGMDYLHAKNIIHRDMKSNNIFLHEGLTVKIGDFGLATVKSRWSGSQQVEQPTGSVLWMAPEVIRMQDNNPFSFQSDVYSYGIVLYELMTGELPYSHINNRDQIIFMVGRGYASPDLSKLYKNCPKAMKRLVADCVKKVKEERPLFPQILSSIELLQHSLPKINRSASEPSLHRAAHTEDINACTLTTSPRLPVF

N#Cc1cnc2[nH]cc(C(=O)c3c(F)ccc(NS(=O)(=O)c4ccccn4)c3F)c2c1 [P-2063, Pyridine-2-sulfonic acid [3-(5-cyano-1H-pyrrolo[2,3-b]pyridine-3-carbonyl)-2,4-difluoro-phenyl]-amide]
not listed: [7]
≤ 10 µM: all other assays above

Cc1cnc2[nH]cc(C(=O)c3c(F)ccc(NS(=O)(=O)c4cccnc4)c3F)c2c1 [P-2069, Pyridine-3-sulfonic acid [2,4-difluoro-3-(5-methyl-1H-pyrrolo[2,3-b]pyridine-3-carbonyl)-phenyl]-amide]
not listed: [7]
≤ 10 µM: all other assays above

O=C(c1c(F)ccc(NS(=O)(=O)c2ccccn2)c1F)c1c[nH]c2nccc(Cl)c12 [P-2075, Pyridine-2-sulfonic acid [3-(4-chloro-1H-pyrrolo[2,3-b]pyridine-3-carbonyl)-2,4-difluoro-phenyl]-amide]
≤ 10 µM: all assays above

COc1ccnc2[nH]cc(C(=O)c3c(F)ccc(NS(=O)(=O)c4ccccn4)c3F)c12 [P-2076, Pyridine-2-sulfonic acid [2,4-difluoro-3-(4-methoxy-1H-pyrrolo[2,3-b]pyridine-3-carbonyl)-phenyl]-amide]
not listed: [7]
≤ 10 µM: all other assays above

CCS(=O)(=O)Nc1ccc(F)c(C(=O)c2c[nH]c3nccc(Cl)c23)c1F [P-2276, Ethanesulfonic acid [3-(4-chloro-1H-pyrrolo[2,3-b]pyridine-3-carbonyl)-2,4-difluoro-phenyl]-amide]
≤ 10 µM: all assays above

CCS(=O)(=O)Nc1ccc(F)c(C(=O)c2c[nH]c3ncc(C)cc23)c1F [P-2277, Ethanesulfonic acid [2,4-difluoro-3-(5-methyl-1H-pyrrolo[2,3-b]pyridine-3-carbonyl)-phenyl]-amide]
≤ 10 µM: all assays above

O=C(c1c(F)ccc(NS(=O)(=O)C(F)(F)F)c1F)c1c[nH]c2ncc(Cl)cc12 [P-2346, N-[3-(5-Chloro-1H-pyrrolo[2,3-b]pyridine-3-carbonyl)-2,4-difluoro-phenyl]-C,C,C-trifluoro-methanesulfonamide]
≤ 10 µM: all assays above

CCCS(=O)(=O)Nc1cccc(C(=O)c2c[nH]c3ncc(-c4cnc(N(C)C)nc4)cc23)c1F [P-2408, Propane-1-sulfonic acid {3-[5-(2-dimethylamino-pyrimidin-5-yl)-1H-pyrrolo[2,3-b]pyridine-3-carbonyl]-2-fluoro-phenyl}-amide]
≤ 10 µM: all assays above
